Experimental data published in ChEMBL document CHEMBL4507276 (2021).

Tests used:
[1] = biological target: Histamine H3 receptor (Homo sapiens) (UniProt Q9Y5N1); settings: Compound concentration 10.0 uM
[2] = biological target: Sigma intracellular receptor 2 (Homo sapiens) (UniProt Q5BJF2); settings: Compound concentration 10.0 uM
[3] = biological target: Macrophage-stimulating protein receptor (Homo sapiens) (UniProt Q04912); settings: Compound concentration 1000.0 nM
[4] = biological target: Serine/threonine-protein kinase Nek10 (Homo sapiens) (UniProt Q6ZWH5); settings: Compound concentration 1000.0 nM
[5] = biological target: AP2-associated protein kinase 1 (Homo sapiens) (UniProt Q2M2I8); settings: Compound concentration 1000.0 nM
[6] = biological target: Serine/threonine-protein kinase WNK3 (Homo sapiens) (UniProt Q9BYP7); settings: Compound concentration 1000.0 nM
[7] = biological target: Serine/threonine-protein kinase 17B (Homo sapiens) (UniProt O94768); settings: Compound concentration 1000.0 nM
Serine/threonine-protein kinase 17B (Homo sapiens), sequence (O94768 whole entry): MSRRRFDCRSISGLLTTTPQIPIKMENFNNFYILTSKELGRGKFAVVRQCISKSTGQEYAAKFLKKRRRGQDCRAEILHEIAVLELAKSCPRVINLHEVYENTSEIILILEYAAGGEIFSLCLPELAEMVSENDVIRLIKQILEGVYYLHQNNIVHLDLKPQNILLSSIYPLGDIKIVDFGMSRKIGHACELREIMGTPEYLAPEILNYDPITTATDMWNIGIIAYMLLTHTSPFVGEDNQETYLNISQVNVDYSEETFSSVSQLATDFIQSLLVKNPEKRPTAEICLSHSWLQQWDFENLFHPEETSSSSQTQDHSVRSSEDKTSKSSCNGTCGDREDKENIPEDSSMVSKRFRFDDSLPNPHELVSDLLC

[8] = biological target: Ribosomal protein S6 kinase alpha-6 (Homo sapiens) (UniProt Q9UK32); settings: Compound concentration 1000.0 nM
[9] = biological target: Serine/threonine-protein kinase NIM1 (Homo sapiens) (UniProt Q8IY84); settings: Compound concentration 1000.0 nM
Serine/threonine-protein kinase NIM1 (Homo sapiens), sequence (Q8IY84 whole entry): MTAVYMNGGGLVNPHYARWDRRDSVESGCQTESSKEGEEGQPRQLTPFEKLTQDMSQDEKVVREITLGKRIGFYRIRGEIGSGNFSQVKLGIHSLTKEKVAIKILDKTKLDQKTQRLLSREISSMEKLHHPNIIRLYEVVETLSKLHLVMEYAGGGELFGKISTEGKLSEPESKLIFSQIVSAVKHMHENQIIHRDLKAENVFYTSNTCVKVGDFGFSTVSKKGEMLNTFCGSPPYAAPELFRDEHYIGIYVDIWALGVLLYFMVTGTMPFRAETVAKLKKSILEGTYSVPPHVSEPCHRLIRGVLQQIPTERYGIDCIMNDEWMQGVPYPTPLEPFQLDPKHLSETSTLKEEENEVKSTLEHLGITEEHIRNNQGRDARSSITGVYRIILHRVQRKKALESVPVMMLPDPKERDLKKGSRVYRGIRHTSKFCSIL

[10] = biological target: Serine/threonine-protein kinase N2 (Homo sapiens) (UniProt Q16513); settings: Compound concentration 1000.0 nM
Serine/threonine-protein kinase N2 (Homo sapiens), sequence (Q16513 whole entry, looked up): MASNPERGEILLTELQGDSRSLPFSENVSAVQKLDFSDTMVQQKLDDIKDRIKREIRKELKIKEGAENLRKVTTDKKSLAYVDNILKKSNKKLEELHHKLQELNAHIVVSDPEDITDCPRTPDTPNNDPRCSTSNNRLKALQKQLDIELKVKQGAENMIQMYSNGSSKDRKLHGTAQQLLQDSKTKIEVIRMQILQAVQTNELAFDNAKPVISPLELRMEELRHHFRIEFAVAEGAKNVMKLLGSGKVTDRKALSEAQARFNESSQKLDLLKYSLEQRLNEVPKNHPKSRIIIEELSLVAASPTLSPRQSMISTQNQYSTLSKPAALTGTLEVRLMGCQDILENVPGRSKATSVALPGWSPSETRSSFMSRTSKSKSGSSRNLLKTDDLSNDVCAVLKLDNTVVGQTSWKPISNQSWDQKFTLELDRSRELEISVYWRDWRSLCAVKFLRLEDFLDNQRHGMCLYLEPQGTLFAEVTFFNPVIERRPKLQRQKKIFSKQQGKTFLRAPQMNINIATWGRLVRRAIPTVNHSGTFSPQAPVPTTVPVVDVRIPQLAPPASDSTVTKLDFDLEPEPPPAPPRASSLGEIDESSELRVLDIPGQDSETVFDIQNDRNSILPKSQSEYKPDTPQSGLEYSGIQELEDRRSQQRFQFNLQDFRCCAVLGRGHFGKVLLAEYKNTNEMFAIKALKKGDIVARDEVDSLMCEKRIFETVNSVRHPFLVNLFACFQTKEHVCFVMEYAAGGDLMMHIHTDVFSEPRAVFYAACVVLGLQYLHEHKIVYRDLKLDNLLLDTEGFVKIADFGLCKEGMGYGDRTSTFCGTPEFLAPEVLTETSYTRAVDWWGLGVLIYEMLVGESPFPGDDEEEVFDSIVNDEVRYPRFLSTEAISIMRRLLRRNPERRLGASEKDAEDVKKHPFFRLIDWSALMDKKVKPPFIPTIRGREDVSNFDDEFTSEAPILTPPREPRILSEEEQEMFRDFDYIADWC

[11] = biological target: Calcium/calmodulin-dependent protein kinase type II subunit delta (Homo sapiens) (UniProt Q13557); settings: Compound concentration 1000.0 nM
[12] = biological target: T1, Serine/threonine-protein kinase D3 (Homo sapiens) (UniProt O94806); settings: Compound concentration 1000.0 nM
T1 sequence (whole entry): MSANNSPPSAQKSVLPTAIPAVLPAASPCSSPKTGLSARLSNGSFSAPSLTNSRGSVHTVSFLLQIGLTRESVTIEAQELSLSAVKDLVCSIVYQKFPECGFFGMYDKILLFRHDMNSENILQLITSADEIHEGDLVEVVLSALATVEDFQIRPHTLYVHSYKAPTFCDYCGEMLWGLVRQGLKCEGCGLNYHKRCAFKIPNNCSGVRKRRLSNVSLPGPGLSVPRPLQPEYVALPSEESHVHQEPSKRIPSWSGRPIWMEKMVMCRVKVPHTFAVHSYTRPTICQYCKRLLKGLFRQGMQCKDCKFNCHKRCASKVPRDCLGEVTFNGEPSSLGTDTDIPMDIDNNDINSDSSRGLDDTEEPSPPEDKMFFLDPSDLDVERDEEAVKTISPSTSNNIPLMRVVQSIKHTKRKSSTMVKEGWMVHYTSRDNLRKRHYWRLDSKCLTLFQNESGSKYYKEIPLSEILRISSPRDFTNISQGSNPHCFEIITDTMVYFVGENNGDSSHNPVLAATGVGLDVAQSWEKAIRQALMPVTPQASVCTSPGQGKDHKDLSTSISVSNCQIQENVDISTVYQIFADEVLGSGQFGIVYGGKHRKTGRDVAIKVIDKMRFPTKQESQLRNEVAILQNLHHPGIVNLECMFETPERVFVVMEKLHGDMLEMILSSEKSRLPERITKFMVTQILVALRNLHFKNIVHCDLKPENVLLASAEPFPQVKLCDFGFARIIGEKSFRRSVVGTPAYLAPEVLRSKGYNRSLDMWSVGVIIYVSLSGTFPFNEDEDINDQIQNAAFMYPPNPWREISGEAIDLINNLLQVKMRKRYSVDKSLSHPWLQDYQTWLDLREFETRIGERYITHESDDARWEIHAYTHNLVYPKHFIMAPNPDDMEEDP

[13] = biological target: Cyclin-dependent kinase 3 (Homo sapiens) (UniProt Q00526); settings: Compound concentration 1000.0 nM
[14] = biological target: Serine/threonine-protein kinase pim-3 (Homo sapiens) (UniProt Q86V86); settings: Compound concentration 1000.0 nM
[15] = test system: Tyrosine-protein kinase ABL1 (Homo sapiens), P00519 [E255K]; settings: Compound concentration 1000.0 nM
[16] = biological target: Casein kinase II subunit alpha (Homo sapiens) (UniProt P68400); settings: Compound concentration 1000.0 nM
[17] = biological target: T2, cGMP-dependent protein kinase 1 (Homo sapiens) (UniProt Q13976); settings: Compound concentration 1000.0 nM
T2 sequence (whole entry): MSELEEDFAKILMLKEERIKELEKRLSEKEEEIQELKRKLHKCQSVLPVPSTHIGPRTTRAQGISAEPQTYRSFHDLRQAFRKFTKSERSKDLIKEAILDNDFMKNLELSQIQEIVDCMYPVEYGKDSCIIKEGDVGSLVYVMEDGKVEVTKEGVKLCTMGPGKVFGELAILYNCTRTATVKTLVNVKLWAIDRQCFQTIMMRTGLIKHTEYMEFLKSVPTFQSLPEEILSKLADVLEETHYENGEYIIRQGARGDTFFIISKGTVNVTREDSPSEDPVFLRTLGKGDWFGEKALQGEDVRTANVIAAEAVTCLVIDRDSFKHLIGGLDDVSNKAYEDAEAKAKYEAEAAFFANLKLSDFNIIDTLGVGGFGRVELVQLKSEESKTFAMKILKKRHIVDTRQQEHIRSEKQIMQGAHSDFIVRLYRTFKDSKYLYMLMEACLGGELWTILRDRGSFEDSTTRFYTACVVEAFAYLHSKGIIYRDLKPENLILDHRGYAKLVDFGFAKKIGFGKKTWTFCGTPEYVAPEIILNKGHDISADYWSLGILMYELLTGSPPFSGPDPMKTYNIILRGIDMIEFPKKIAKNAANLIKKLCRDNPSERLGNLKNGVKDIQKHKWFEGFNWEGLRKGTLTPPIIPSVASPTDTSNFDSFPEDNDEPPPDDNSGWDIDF

[18] = biological target: TGF-beta receptor type-2 (Homo sapiens) (UniProt P37173); settings: Compound concentration 1000.0 nM
[19] = test system: Epidermal growth factor receptor (Homo sapiens), P00533 [UNDEFINED MUTATION]; settings: Compound concentration 1000.0 nM
Epidermal growth factor receptor (Homo sapiens), P00533 [UNDEFINED MUTATION], sequence (P00533 whole entry, looked up, change not shown): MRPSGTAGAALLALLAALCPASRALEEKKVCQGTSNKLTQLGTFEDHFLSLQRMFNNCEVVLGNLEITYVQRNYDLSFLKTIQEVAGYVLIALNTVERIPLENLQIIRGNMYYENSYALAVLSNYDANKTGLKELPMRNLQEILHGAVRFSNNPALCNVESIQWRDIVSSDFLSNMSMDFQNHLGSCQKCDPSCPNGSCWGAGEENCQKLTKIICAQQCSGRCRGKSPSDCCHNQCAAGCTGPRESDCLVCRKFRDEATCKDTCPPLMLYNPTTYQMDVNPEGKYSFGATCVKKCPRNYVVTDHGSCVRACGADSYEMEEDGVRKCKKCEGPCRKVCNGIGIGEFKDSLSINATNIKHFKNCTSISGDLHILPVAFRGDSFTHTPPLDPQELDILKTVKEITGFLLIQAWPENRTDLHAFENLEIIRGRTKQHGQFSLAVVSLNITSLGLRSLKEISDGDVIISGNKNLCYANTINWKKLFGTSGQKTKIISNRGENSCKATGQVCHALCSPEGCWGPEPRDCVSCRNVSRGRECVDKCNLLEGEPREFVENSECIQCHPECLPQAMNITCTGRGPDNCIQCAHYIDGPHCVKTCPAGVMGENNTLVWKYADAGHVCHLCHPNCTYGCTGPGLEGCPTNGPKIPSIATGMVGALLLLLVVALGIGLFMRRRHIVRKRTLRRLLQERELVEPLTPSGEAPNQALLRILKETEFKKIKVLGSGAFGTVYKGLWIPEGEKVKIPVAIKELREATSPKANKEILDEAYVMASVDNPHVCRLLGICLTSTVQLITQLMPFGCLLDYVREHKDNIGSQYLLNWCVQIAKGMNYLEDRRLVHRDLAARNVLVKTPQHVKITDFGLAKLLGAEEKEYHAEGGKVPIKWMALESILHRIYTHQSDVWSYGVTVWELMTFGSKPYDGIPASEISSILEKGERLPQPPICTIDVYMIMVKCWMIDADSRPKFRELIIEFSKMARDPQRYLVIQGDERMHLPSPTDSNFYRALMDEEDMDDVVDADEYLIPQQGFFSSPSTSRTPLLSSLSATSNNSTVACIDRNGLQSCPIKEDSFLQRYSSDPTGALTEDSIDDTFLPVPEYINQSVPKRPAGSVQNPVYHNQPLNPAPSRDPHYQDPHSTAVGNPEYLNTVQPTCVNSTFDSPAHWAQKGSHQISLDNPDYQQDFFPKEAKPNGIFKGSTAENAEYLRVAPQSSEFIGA

Macrophage-stimulating protein receptor (Homo sapiens), sequence (Q04912 25-304 limits assumed): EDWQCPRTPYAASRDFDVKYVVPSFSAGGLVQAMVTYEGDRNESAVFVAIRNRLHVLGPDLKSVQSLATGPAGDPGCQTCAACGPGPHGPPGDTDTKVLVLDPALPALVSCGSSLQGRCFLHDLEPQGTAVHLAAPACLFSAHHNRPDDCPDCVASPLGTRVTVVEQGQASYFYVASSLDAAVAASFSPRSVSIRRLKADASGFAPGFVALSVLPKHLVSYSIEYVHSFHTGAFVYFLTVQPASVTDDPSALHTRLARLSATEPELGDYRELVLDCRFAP
Macrophage-stimulating protein receptor (Homo sapiens), sequence (Q04912 310-1400 limits assumed): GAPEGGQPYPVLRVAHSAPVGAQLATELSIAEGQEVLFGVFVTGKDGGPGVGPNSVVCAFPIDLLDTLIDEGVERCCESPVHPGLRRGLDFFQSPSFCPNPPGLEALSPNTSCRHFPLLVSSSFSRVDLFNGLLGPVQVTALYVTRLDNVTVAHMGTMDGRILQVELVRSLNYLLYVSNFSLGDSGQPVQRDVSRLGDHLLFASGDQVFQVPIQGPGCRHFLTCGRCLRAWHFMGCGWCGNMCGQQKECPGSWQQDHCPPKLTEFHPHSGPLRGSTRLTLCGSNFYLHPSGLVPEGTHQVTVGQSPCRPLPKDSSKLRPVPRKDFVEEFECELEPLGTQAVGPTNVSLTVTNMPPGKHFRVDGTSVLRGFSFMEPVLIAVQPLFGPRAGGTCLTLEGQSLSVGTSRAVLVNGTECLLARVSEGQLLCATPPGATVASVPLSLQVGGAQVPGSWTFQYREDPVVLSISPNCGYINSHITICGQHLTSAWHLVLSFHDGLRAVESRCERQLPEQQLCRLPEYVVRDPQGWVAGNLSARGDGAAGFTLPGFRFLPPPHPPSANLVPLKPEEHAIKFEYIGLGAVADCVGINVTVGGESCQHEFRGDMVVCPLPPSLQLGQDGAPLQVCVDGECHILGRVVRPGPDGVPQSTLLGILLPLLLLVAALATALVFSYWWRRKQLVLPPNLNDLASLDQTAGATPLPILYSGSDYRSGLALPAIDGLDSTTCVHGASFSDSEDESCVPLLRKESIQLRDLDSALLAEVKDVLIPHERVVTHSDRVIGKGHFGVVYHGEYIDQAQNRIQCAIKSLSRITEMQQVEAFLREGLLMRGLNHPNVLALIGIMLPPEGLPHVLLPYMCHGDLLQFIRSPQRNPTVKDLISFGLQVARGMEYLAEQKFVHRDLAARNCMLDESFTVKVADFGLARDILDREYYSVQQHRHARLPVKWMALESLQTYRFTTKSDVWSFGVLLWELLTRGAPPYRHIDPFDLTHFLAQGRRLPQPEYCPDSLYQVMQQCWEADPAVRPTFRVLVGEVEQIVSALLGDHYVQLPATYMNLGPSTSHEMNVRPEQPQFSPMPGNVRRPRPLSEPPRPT
Sigma intracellular receptor 2 (Homo sapiens), sequence (Q5BJF2 whole entry): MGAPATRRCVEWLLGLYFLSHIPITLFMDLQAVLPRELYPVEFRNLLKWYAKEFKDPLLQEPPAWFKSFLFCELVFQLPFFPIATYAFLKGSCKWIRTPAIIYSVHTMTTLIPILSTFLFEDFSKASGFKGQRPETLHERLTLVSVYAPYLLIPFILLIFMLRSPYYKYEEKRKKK

CN(C)C(=O)Cn1cc(-c2nc(C3(c4ccc(-c5cnc(N)nc5)cc4)CC3)no2)cn1 [BI 0153]
inactive: inhibition [1] 3.45% | inhibition [2] 25% | residual activity [3] 95% | residual activity [4] 99% | residual activity [5] 100% | residual activity [6] 87% | residual activity [7] 100% | residual activity [8] 100% | residual activity [9] 83% | residual activity [10] 77% | residual activity [11] 99% | residual activity [12] 92% | residual activity [13] 100% | residual activity [14] 100% | residual activity [15] 100% | residual activity [16] 73% | residual activity [17] 89% | residual activity [18] 100% | residual activity [19] 67%

CN(C)C(=O)Cn1cc(-c2nc([C@@](C)(c3ccc(-c4cnc(N)nc4)cc3)C3CC3)no2)cn1 [BI 665915]
inactive: inhibition [1] 11% | inhibition [2] 10.1% | residual activity [3] 79% | residual activity [4] 97% | residual activity [5] 100% | residual activity [6] 76% | residual activity [7] 88% | residual activity [8] 100% | residual activity [9] 86% | residual activity [10] 100% | residual activity [11] 100% | residual activity [12] 100% | residual activity [13] 100% | residual activity [14] 96% | residual activity [15] 95% | residual activity [16] 88% | residual activity [17] 100% | residual activity [18] 88% | residual activity [19] 100%
